ChEMBL document CHEMBL5576117, “Importance of isoleucine residue in ion channel formation ability of 11-residue peptaibols” (Bioorg Med Chem, 2024)
Active and inactive are the calls of the source. The calls are words filed in the database; no cut-off is given here. Where a SMILES comes first, the peptide text is derived from it. [ ]: non-standard residue; d: D form. Aib = CC(C)(N)C(=O)O

Columns and labels:
[1] = Ion conductance property of compound in Diphytanoylphosphatidyl-choline bilayer assessed as ion channel forming ability at 1 uM treated at cis-side of the membrane at +100 mV by tip-dip patch clamp method
[2] = tested on: Erythrocyte; experiment: Hemolytic activity in human erythrocytes at 10 ug/ml incubated for 1 hr by absorbance based analysis; assay type: toxicity, cell-based; conditions: dose 10 µg/ml
[3] = tested on: Erythrocyte; experiment: Hemolytic activity in human erythrocytes at 50 ug/ml incubated for 1 hr by absorbance based analysis; assay type: toxicity, cell-based; conditions: dose 50 µg/ml

Compound: CC[C@H](C)[C@H](NC(=O)[C@@H]1CCCN1C(=O)C(C)(C)NC(=O)[C@@H](NC(=O)[C@@H](NC(=O)[C@@H]1CCCN1C(=O)C(C)(C)NC(=O)[C@@H](NC(=O)[C@@H](NC(=O)[C@H](CC(N)=O)NC(=O)C(C)(C)NC(C)=O)[C@@H](C)CC)[C@@H](C)CC)[C@@H](C)CC)[C@@H](C)CC)C(=O)O (Ac-[Aib]NII[Aib]PII[Aib]PI-OH)
- Activity [1]: Active
- Activity [2]: Non-Toxic
- Activity [3]: Toxic

Compound: CC[C@H](C)[C@H](NC(=O)[C@@H]1CCCN1C(=O)C(C)(C)NC(=O)[C@@H](NC(=O)[C@@H](NC(=O)[C@@H]1CCCN1C(=O)C(C)(C)NC(=O)[C@@H](NC(=O)[C@H](CC(C)C)NC(=O)[C@H](CC(N)=O)NC(=O)C(C)(C)NC(C)=O)[C@@H](C)CC)[C@@H](C)CC)[C@@H](C)CC)C(=O)O (Ac-[Aib]NLI[Aib]PII[Aib]PI-OH)
- Activity [1]: Active
- Activity [2]: Non-Toxic
- Activity [3]: Toxic

Compound: CC[C@H](C)[C@H](NC(=O)[C@@H]1CCCN1C(=O)C(C)(C)NC(=O)[C@@H](NC(=O)[C@H](CC(C)C)NC(=O)[C@@H]1CCCN1C(=O)C(C)(C)NC(=O)[C@H](CC(C)C)NC(=O)[C@H](CC(C)C)NC(=O)[C@H](CC(N)=O)NC(=O)C(C)(C)NC(C)=O)[C@@H](C)CC)C(=O)O (Ac-[Aib]NLL[Aib]PLI[Aib]PI-OH)
- Activity [1]: Active
- Activity [3]: Toxic

Compound: CC[C@H](C)[C@H](NC(=O)[C@@H]1CCCN1C(=O)C(C)(C)NC(=O)[C@H](CC(C)C)NC(=O)[C@@H](NC(=O)[C@@H]1CCCN1C(=O)C(C)(C)NC(=O)[C@@H](NC(=O)[C@@H](NC(=O)[C@H](CC(N)=O)NC(=O)C(C)(C)NC(C)=O)[C@@H](C)CC)[C@@H](C)CC)[C@@H](C)CC)C(=O)O (Ac-[Aib]NII[Aib]PIL[Aib]PI-OH)
- Activity [1]: Active
- Activity [2]: Non-Toxic
- Activity [3]: Toxic

Compound: CC[C@H](C)[C@H](NC(=O)[C@@H](NC(=O)[C@@H]1CCCN1C(=O)C(C)(C)NC(=O)[C@H](CC(C)C)NC(=O)[C@H](CC(C)C)NC(=O)[C@H](CC(N)=O)NC(=O)C(C)(C)NC(C)=O)[C@@H](C)CC)C(=O)NC(C)(C)C(=O)N1CCC[C@H]1C(=O)N[C@@H](CC(C)C)C(=O)O (Ac-[Aib]NLL[Aib]PII[Aib]PL-OH)
- Activity [2]: Non-Toxic
- Activity [3]: Toxic

Compound: CC[C@H](C)[C@H](NC(=O)[C@H](CC(N)=O)NC(=O)C(C)(C)NC(C)=O)C(=O)N[C@H](C(=O)NC(C)(C)C(=O)N1CCC[C@H]1C(=O)N[C@H](C(=O)N[C@H](C(=O)NC(C)(C)C(=O)N1CCC[C@H]1C(=O)N[C@@H](CC(C)C)C(=O)O)[C@@H](C)CC)[C@@H](C)CC)[C@@H](C)CC (Ac-[Aib]NII[Aib]PII[Aib]PL-OH)
- Activity [1]: Active
- Activity [3]: Toxic

Compound: CC[C@H](C)[C@H](NC(=O)[C@@H]1CCCN1C(=O)C(C)(C)NC(=O)[C@H](CC(C)C)NC(=O)[C@H](CC(C)C)NC(=O)[C@@H]1CCCN1C(=O)C(C)(C)NC(=O)[C@@H](NC(=O)[C@@H](NC(=O)[C@H](CC(N)=O)NC(=O)C(C)(C)NC(C)=O)[C@@H](C)CC)[C@@H](C)CC)C(=O)O (Ac-[Aib]NII[Aib]PLL[Aib]PI-OH)
- Activity [1]: Active
- Activity [2]: Non-Toxic
- Activity [3]: Toxic

Compound: CC[C@H](C)[C@H](NC(=O)[C@H](CC(N)=O)NC(=O)C(C)(C)NC(C)=O)C(=O)N[C@H](C(=O)NC(C)(C)C(=O)N1CCC[C@H]1C(=O)N[C@@H](CC(C)C)C(=O)N[C@@H](CC(C)C)C(=O)NC(C)(C)C(=O)N1CCC[C@H]1C(=O)N[C@@H](CC(C)C)C(=O)O)[C@@H](C)CC (Ac-[Aib]NII[Aib]PLL[Aib]PL-OH)
- Activity [1]: Active
- Activity [2]: Non-Toxic
- Activity [3]: Toxic

Compound: CC[C@H](C)[C@H](NC(=O)[C@H](CC(C)C)NC(=O)[C@H](CC(N)=O)NC(=O)C(C)(C)NC(C)=O)C(=O)NC(C)(C)C(=O)N1CCC[C@H]1C(=O)N[C@H](C(=O)N[C@H](C(=O)NC(C)(C)C(=O)N1CCC[C@H]1C(=O)N[C@@H](CC(C)C)C(=O)O)[C@@H](C)CC)[C@@H](C)CC (Ac-[Aib]NLI[Aib]PII[Aib]PL-OH)
- Activity [1]: inactive
- Activity [2]: Non-Toxic
- Activity [3]: Toxic

Compound: CC[C@H](C)[C@H](NC(=O)[C@H](CC(N)=O)NC(=O)C(C)(C)NC(C)=O)C(=O)N[C@@H](CC(C)C)C(=O)NC(C)(C)C(=O)N1CCC[C@H]1C(=O)N[C@@H](CC(C)C)C(=O)N[C@@H](CC(C)C)C(=O)NC(C)(C)C(=O)N1CCC[C@H]1C(=O)N[C@@H](CC(C)C)C(=O)O (Ac-[Aib]NIL[Aib]PLL[Aib]PL-OH)
- Activity [1]: inactive
- Activity [2]: Non-Toxic
- Activity [3]: Toxic

Compound: CC(=O)NC(C)(C)C(=O)N[C@@H](CC(N)=O)C(=O)N[C@@H](CC(C)C)C(=O)N[C@@H](CC(C)C)C(=O)NC(C)(C)C(=O)N1CCC[C@H]1C(=O)N[C@@H](CC(C)C)C(=O)N[C@@H](CC(C)C)C(=O)NC(C)(C)C(=O)N1CCC[C@H]1C(=O)N[C@@H](CC(C)C)C(=O)O (Ac-[Aib]NLL[Aib]PLL[Aib]PL-OH)
- Activity [1]: inactive
- Activity [2]: Non-Toxic
- Activity [3]: Toxic

Compound: CC[C@H](C)[C@H](NC(=O)[C@H](CC(C)C)NC(=O)[C@@H]1CCCN1C(=O)C(C)(C)NC(=O)[C@H](CC(C)C)NC(=O)[C@H](CC(C)C)NC(=O)[C@H](CC(N)=O)NC(=O)C(C)(C)NC(C)=O)C(=O)NC(C)(C)C(=O)N1CCC[C@H]1C(=O)N[C@@H](CC(C)C)C(=O)O (Ac-[Aib]NLL[Aib]PLI[Aib]PL-OH)
- Activity [2]: Non-Toxic
- Activity [3]: Toxic

Compound: CC[C@H](C)[C@H](NC(=O)[C@@H]1CCCN1C(=O)C(C)(C)NC(=O)[C@H](CC(C)C)NC(=O)[C@H](CC(C)C)NC(=O)[C@@H]1CCCN1C(=O)C(C)(C)NC(=O)[C@H](CC(C)C)NC(=O)[C@H](CC(C)C)NC(=O)[C@H](CC(N)=O)NC(=O)C(C)(C)NC(C)=O)C(=O)O (Ac-[Aib]NLL[Aib]PLL[Aib]PI-OH)
- Activity [1]: Active
- Activity [2]: Non-Toxic
- Activity [3]: Toxic

Compound: CC[C@H](C)[C@H](NC(=O)[C@@H]1CCCN1C(=O)C(C)(C)NC(=O)[C@@H](NC(=O)[C@@H](NC(=O)[C@@H]1CCCN1C(=O)C(C)(C)NC(=O)[C@H](CC(C)C)NC(=O)[C@H](CC(C)C)NC(=O)[C@H](CC(N)=O)NC(=O)C(C)(C)NC(C)=O)[C@@H](C)CC)[C@@H](C)CC)C(=O)O (Ac-[Aib]NLL[Aib]PII[Aib]PI-OH)
- Activity [1]: Active
- Activity [3]: Toxic

Compound: CC[C@H](C)[C@H](NC(=O)[C@H](CC(N)=O)NC(=O)C(C)(C)NC(C)=O)C(=O)N[C@H](C(=O)NC(C)(C)C(=O)N1CCC[C@H]1C(=O)N[C@H](C(=O)N[C@@H](CC(C)C)C(=O)NC(C)(C)C(=O)N1CCC[C@H]1C(=O)N[C@@H](CC(C)C)C(=O)O)[C@@H](C)CC)[C@@H](C)CC (Ac-[Aib]NII[Aib]PIL[Aib]PL-OH)
- Activity [1]: inactive
- Activity [2]: Non-Toxic
- Activity [3]: Toxic
